# Source: patent US20060040957A1, “BICYCLIC PYRIMIDINE MATRIX METALLOPROTEINASE INHIBITORS” (priority 2001, published 2006)
# Structures can show the parent of a compound that is named as a salt. Where two headings read alike, the source gives them in different places.
# How the values were obtained:
# [1] = target: MMP-14CD (catalytic domain of MMP-14) (Homo sapiens, UniProt P50281); assay: Thiopeptolide substrate hydrolysis assay, MMP-14CD; format: biochemical; conditions: HEPES pH 7.0, 22° C., read-out: IC50 (μM) Versus Certain MMPs: MMP-14 CD
# From the text: (§1) The invention compounds of Formula I have been evaluated in standard assays for their ability to inhibit the catalytic activity of various MMP enzymes.
# (§2) Thiopeptolide substrates show virtually no decomposition or hydrolysis at or below neutral pH in the absence of a matrix metalloproteinase enzyme.
# (§3) Several representative compounds have been evaluated for their ability to inhibit various matrix metalloproteinase enzymes.
# [2] = target: T1, MMP-7FL (full length matrilysin) (Homo sapiens, UniProt P09237); assay: Thiopeptolide substrate hydrolysis assay, MMP-7FL; format: biochemical; conditions: HEPES pH 7.0, 22° C., read-out: IC50 (μM) Versus Certain MMPs: MMP-07 FL
# T1 sequence (P09237 95-267): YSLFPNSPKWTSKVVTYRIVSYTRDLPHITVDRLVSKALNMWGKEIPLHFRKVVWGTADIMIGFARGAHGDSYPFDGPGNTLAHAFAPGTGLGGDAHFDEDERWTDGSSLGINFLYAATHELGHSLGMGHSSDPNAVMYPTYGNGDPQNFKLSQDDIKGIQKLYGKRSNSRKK
# From the text: as §1, §2, §3
# [3] = target: T2, MMP-1FL (full length interstitial collagenase) (Homo sapiens, UniProt P03956); assay: Thiopeptolide substrate hydrolysis assay, MMP-1FL; format: biochemical; conditions: HEPES pH 7.0, 22° C., read-out: IC50 (μM) Versus Certain MMPs: MMP-01 FL
# T2 sequence (P03956 100-469): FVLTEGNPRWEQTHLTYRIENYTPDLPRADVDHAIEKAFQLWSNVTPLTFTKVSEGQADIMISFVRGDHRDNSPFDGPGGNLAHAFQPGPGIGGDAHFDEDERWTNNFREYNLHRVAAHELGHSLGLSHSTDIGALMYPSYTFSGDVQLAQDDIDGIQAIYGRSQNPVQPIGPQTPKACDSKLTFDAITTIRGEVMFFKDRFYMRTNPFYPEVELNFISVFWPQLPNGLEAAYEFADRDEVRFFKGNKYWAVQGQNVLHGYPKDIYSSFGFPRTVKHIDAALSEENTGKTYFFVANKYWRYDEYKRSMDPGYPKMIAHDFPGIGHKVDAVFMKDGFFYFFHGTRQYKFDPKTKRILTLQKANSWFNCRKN
# From the text: as §1, §2, §3
# [4] = target: MMP-3CD (catalytic domain of stromelysin-1) (Homo sapiens, UniProt P08254); assay: Thiopeptolide substrate hydrolysis assay, MMP-3CD; format: biochemical; conditions: MES buffer pH 6.0, read-out: IC50 (μM) Versus Certain MMPs: MMP-03 CD
# Experimental: as §1, §2, §3
# It should be appreciated that the assay buffer used with MMP-3CD was 50 mM N-morpholinoethane sulfonate (−MES=) at pH 6.0 rather than the HEPES buffer at pH 7.0 described above.
# [5] = target: MMP-9FL (full length Gelatinase B) (Homo sapiens, UniProt P14780); assay: Thiopeptolide substrate hydrolysis assay, MMP-9FL; format: biochemical; conditions: HEPES pH 7.0, 22° C., read-out: IC50 (μM) Versus Certain MMPs: MMP-09 FL
# From the text: as §1, §2, §3
# [6] = target: T3, MMP-2FL (full length Gelatinase A) (Homo sapiens, UniProt P08253); assay: Thiopeptolide substrate hydrolysis assay, MMP-2FL; format: biochemical; conditions: HEPES pH 7.0, 22° C., read-out: IC50 (μM) Versus Certain MMPs: MMP-02 FL
# T3 sequence (P08253 110-660): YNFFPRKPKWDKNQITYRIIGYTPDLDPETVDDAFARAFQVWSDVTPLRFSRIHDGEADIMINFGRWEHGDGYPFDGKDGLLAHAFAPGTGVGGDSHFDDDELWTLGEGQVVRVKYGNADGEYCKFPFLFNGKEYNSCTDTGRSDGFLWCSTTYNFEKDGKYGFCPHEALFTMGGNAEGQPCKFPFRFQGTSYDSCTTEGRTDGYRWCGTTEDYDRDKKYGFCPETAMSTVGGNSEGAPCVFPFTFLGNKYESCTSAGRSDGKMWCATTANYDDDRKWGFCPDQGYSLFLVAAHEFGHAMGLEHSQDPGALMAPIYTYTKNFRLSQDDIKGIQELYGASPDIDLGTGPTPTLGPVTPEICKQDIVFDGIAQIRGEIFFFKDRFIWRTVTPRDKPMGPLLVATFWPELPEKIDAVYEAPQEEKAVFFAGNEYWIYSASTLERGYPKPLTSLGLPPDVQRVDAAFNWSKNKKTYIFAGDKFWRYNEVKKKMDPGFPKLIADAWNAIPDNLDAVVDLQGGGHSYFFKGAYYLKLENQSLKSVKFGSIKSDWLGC
# From the text: as §1, §2, §3
# [7] = target: MMP-13CD (catalytic domain of collagenase 3) (Homo sapiens, UniProt P45452); assay: Thiopeptolide substrate hydrolysis assay, MMP-13CD; format: biochemical; conditions: thiopeptolide substrate, HEPES pH 7.0, 22° C.
# From the text: as §2
# [8] = IC50 (μM) Versus Certain MMPs: MMP-13 CD
# [9] = read-out: IC50 (μM) Versus Certain MMPs: MMP-13 CD
# Chain of MMP-9FL (full length Gelatinase B) (P14780 94-707, species assumed): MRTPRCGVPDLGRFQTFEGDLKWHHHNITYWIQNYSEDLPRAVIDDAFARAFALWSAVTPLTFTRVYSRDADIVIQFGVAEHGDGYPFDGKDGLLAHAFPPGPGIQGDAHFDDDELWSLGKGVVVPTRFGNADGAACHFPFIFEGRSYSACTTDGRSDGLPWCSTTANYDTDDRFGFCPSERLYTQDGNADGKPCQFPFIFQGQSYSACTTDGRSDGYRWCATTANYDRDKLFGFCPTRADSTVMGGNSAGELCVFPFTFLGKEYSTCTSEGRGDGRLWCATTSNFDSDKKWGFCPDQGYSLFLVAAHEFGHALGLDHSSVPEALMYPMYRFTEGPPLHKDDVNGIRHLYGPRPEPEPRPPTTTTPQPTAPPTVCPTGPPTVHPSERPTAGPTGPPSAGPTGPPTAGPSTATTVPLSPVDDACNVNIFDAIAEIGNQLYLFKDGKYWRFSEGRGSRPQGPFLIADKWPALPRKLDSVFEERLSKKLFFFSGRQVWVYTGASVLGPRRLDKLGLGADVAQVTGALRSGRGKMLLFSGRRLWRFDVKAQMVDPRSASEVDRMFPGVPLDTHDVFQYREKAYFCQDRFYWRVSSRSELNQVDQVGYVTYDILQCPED
# Chain of MMP-3CD (catalytic domain of stromelysin-1) (P08254 100-272 limits assumed): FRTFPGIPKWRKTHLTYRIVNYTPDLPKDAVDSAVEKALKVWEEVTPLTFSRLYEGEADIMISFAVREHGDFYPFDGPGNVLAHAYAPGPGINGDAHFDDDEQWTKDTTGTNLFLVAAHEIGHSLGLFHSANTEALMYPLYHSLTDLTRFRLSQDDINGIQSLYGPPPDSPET
smiles,measurement,setting,value
"O=C(OCc1ccccc1)c1cn2c(=O)n(Cc3ccccc3)c(=O)cc2s1 [Example 1, 6-Benzyl-5,7-dioxo-6,7-dihydro-5H-thiazolo[3,2-c]pyrimidine-2-carboxylic acid benzyl ester]",IC50,[1],> 30 µM
same,IC50,[2],96 µM
same,IC50,[3],> 100 µM
same,IC50,[4],23 µM
"Cc1c(=O)n(Cc2ccccc2)c(=O)n2cc(C(=O)OCc3ccccc3)sc12 [Example 2, 6-Benzyl-8-methyl-5,7-dioxo-6,7-dihydro-5H-thiazolo[3,2-c]pyrimidine-2-carboxylic acid benzyl ester]",IC50,[3],> 100 µM
"O=C(OCc1ccncc1)c1cn2c(=O)n(Cc3ccccc3)c(=O)cc2s1 [Example 3, 6-Benzyl-5,7-dioxo-6,7-dihydro-5H-thiazolo[3,2-c]pyrimidine-2-carboxylic acid pyridin-4-ylmethyl ester hydrochloride]",IC50,[1],> 100 µM
same,IC50,[5],> 100 µM
same,IC50,[2],> 100 µM
same,IC50,[3],> 100 µM
same,IC50,[6],> 100 µM
same,IC50,[4],11 µM
"O=C(NCc1ccccc1)c1cn2c(=O)n(Cc3ccccc3)c(=O)cc2s1 [Example 4, 6-Benzyl-5,7-dioxo-6,7-dihydro-5H-thiazolo[3,2-c]pyrimidine-2-carboxylic acid benzylamide]",IC50,[1],47.5 µM
same,IC50,[5],83.5 µM
same,IC50,[2],65 µM
same,IC50,[7]; [8],0.572 µM
same,IC50,[3],81 µM
same,IC50,[6],> 100 µM
same,IC50,[4],27 µM
"O=c1cc2sc(C(O)CCc3ccccc3)cn2c(=O)n1Cc1ccccc1 (stereo not drawn) [Example 5, 6-Benzyl-2-(1-hydroxy-3-phenyl-propyl)-thiazolo[3,2-c]pyrimidine-5,7-dione]",IC50,[1],> 100 µM
same,IC50,[5],> 100 µM
same,IC50,[2],> 100 µM
same,IC50,[7]; [9],14.3 µM
same,IC50,[3],> 100 µM
same,IC50,[6],> 100 µM
same,IC50,[4],> 100 µM
"O=C(Nc1ccc(-c2ccccc2)cc1)c1cn2c(=O)n(Cc3ccccc3)c(=O)cc2s1 [Example 6, 6-Benzyl-5,7-dioxo-6,7-dihydro-5H-thiazolo[3,2-c]pyrimidine-2-carboxylic acid biphenyl-4-ylamide]",IC50,[1],7.3 µM
same,IC50,[5],> 30 µM
same,IC50,[2],9.2 µM
same,IC50,[7]; [9],23 µM
same,IC50,[3],> 30 µM
same,IC50,[6],> 30 µM
same,IC50,[4],3.5 µM
"O=C(CCc1ccccc1)c1cn2c(=O)n(Cc3ccccc3)c(=O)cc2s1 [Example 8, 6-Benzyl-2-(3-phenyl-propionyl)-thiazolo[3,2-c]pyrimidine-5,7-dione]",IC50,[1],8.8 µM
same,IC50,[5],> 100 µM
same,IC50,[2],> 30 µM
same,IC50,[7]; [8],6.6 µM
same,IC50,[3],> 100 µM
same,IC50,[6],> 100 µM
same,IC50,[4],3.2 µM
"Cc1c(C(=O)OCc2ccccc2)sc2cc(=O)n(Cc3ccccc3)c(=O)n12 [Example 19, 6-Benzyl-3-methyl-5,7-dioxo-6,7-dihydro-5H-thiazolo[3,2-c]pyrimidine-2-carboxylic acid benzyl ester]",IC50,[1],> 30 µM
same,IC50,[5],> 30 µM
same,IC50,[2],8.8 µM
same,IC50,[7]; [8],21 µM
same,IC50,[3],> 100 µM
same,IC50,[6],> 100 µM
same,IC50,[4],> 100 µM
"O=C(OCc1ccncc1)C1Cn2c(cc(=O)n(Cc3ccccc3)c2=O)S1 (stereo not drawn) [Example 21, 6-Benzyl-5,7-dioxo-2,3,6,7-tetrahydro-5H-thiazolo[3,2-c]pyrimidine-2-carboxylic acid pyridin-4-ylmethyl ester hydrochloride]",IC50,[1],> 100 µM
same,IC50,[5],> 100 µM
same,IC50,[2],> 100 µM
same,IC50,[3],> 100 µM
same,IC50,[6],> 100 µM
same,IC50,[4],> 100 µM
COc1cc(CNC(=O)c2cn3c(=O)n(Cc4ccccc4)c(=O)c(C)c3s2)ccn1 [Example 37],IC50,[1],> 30 µM
same,IC50,[5],> 30 µM
same,IC50,[2],> 30 µM
same,IC50,[7]; [8],0.0175 µM
same,IC50,[3],> 30 µM
same,IC50,[6],> 30 µM
same,IC50,[4],10 µM
"COc1cc(CNC(=O)c2cn3c(=O)n(Cc4ccccc4)c(=O)c(C)c3s2)ccn1 [Example 37a, hydrochloride]",IC50,[2],26 µM
same,IC50,[7]; [8],0.0208 µM
same,IC50,[4],20.5 µM
"Cc1c(=O)n(Cc2ccccc2)c(=O)n2cc(C(=O)NCc3ccc4nsnc4c3)sc12 [Example 42, 6-Benzyl-8-methyl-5,7-dioxo-6,7-dihydro-5H-thiazolo[3,2-c]pyrimidine-2-carboxylic acid(2,1,3-benzothiadiazol-5-ylmethyl)-amide]",IC50,[1],> 100 µM
same,IC50,[5],> 30 µM
same,IC50,[2],> 30 µM
same,IC50,[6],> 30 µM
same,IC50,[4],10 µM
"Cc1c(=O)n(Cc2ccc(C(=O)O)cc2)c(=O)n2cc(C(=O)NCc3ccncc3)sc12 [Example 62, 4-{8-Methyl-5,7-dioxo-2-[(pyridin-4-ylmethyl)-carbamoyl]-7H-thiazolo[3,2-c]pyrimidin-6-ylmethyl}-benzoic acid trifluoro-acetate]",IC50,[3],> 100 µM
"COC(=O)c1ccc(Cn2c(=O)c(C)c3sc(C(=O)NCc4ccc(F)cc4)cn3c2=O)cc1OC.Cl [Example 69, 4-[2-(4-Fluoro-benzylcarbamoyl)-8-methyl-5,7-dioxo-7H-thiazolo[3,2-c]pyrimidin-6-ylmethyl]-2-methoxy-benzoic acid methyl ester]",IC50,[1],> 30 µM
same,melting point,,191 to 193 °C
same,IC50,[5],> 30 µM
same,IC50,[2],> 30 µM
same,IC50,[6],> 30 µM
same,IC50,[4],10 µM
"COC(=O)c1nc(Cn2c(=O)c(C)c3sc(C(=O)NCc4ccc(F)cc4)cn3c2=O)ncc1OC [Example 78, 2-[2-(4-Fluoro-benzylcarbamoyl)-8-methyl-5,7-dioxo-7H-thiazolo[3,2-c]pyrimidin-6-ylmethyl]-5-methoxy-pyrimidine-4-carboxylic acid methyl ester]",IC50,[1],> 30 µM
same,IC50,[5],> 30 µM
same,IC50,[2],> 30 µM
same,IC50,[3],> 30 µM
same,IC50,[6],> 30 µM
same,IC50,[4],> 30 µM
"Cc1c(=O)n(Cc2ccc(S(C)(=O)=O)cc2)c(=O)n2cc(C(=O)NCc3ccncc3)sc12 [Example 81, 6-(4-Methanesulfonyl-benzyl)-8-methyl-5,7-dioxo-6,7-dihydro-5H-thiazolo[3,2-c]pyrimidine-2-carboxylic acid(pyridin-4-ylmethyl)-amide hydrochloride]",IC50,[3],> 100 µM
